Reference: BindingDB's records for doi:10.1021/acs.jmedchem.5b01148 (Queensland University of Technology, 2015)
Bridge positions count the residues as written; N and C are the ends. Peptide text beside a SMILES is read from it.

Test: Inhibition of matriptase (unknown origin) using Ac-RQFRpNA substrate by spectrophotometry method

Ki [nM] | SMILES
546 | CC[C@H](C)[C@@H]1NC(=O)[C@@H]2CCCN2C(=O)[C@@H]2CCCN2C(=O)[C@H]([C@@H](C)CC)NC(=O)[C@H](CO)NC(=O)[C@H](CCCNC(=N)N)NC(=O)[C@H]([C@@H](C)O)NC(=O)[C@@H]2CSSC[C@H](NC1=O)C(=O)N[C@@H](Cc1ccccc1)C(=O)N1CCC[C@H]1C(=O)N[C@H](C(=O)O)CC(=O)NCC(=O)N[C@@H](CCCNC(=N)N)C(=O)N2 (GRCTRSIPPICFPD-OH; disulfide 3-11; lactam N-14)
> 50000 | CC[C@H](C)[C@@H]1NC(=O)[C@@H]2CCCN2C(=O)[C@@H]2CCCN2C(=O)[C@H](Cc2ccc(O)cc2)NC(=O)[C@H](CO)NC(=O)[C@H](CCCNC(=N)N)NC(=O)[C@H]([C@@H](C)O)NC(=O)[C@@H]2CSSC[C@H](NC1=O)C(=O)N[C@@H](Cc1ccccc1)C(=O)N1CCC[C@H]1C(=O)N[C@H](C(=O)O)CC(=O)NCC(=O)N[C@@H](CCCNC(=N)N)C(=O)N2 (GRCTRSYPPICFPD-OH; disulfide 3-11; lactam N-14)
87 | C[C@@H](O)[C@@H]1NC(=O)[C@@H](NC(=O)[C@H](CCCNC(=N)N)NC(=O)CN)CSSC[C@@H](C(=O)N[C@@H](Cc2cnc[nH]2)C(=O)O)NC(=O)[C@H](CCCNC(=N)N)NC(=O)[C@@H]2CCCN2C(=O)[C@@H]2CCCN2C(=O)[C@H](CC(=O)O)NC(=O)[C@H](CO)NC(=O)[C@H](CCCCN)NC1=O (H-GRCTKSDPPRCH-OH; disulfide 3-11)
82 | CC[C@H](C)[C@@H]1NC(=O)[C@H](CO)NC(=O)[C@H](CCCCN)NC(=O)[C@H]([C@@H](C)O)NC(=O)[C@@H](NC(=O)[C@H](CCCNC(=N)N)NC(=O)CN)CSSC[C@@H](C(=O)N[C@@H](Cc2cnc[nH]2)C(=O)O)NC(=O)[C@H](CCCNC(=N)N)NC(=O)[C@@H]2CCCN2C(=O)[C@@H]2CCCN2C1=O (H-GRCTKSIPPRCH-OH; disulfide 3-11)
